From US6509002B1, “Diagnostic agent for diabetes” (priority 1997, dated 2003)

Assay: ^13C breath test, intravenous administration (femoral vein), diabetic vs normal rats
Format: in vivo, rat
Conditions: for slope from 10 to 14 min after the administration / Δ^13C value (‰) at 20 min after the administration: 5 mg/kg from the femoral vein, Example 28
From the text: As test animals, male Sprague-Dawley strain (SD) neonatal rats were purchased from Nippon Charles River K. K. together with their lactating rats. […] Insulin secretion-deficient type diabetes was generated by administering streptozotocin (STZ) to neonatal rats (“Saibokogaku (Cell Engineering)”, Extra Issue, medical Experiment Manual Series, Strategy for Study of Diabetes, edited by Susumu Seino and Yoshikazu Oka, published by Shujunsha Co., Japan). STZ was subcutaneously administered to 2-day-old rats at a dose of 90 mg/kg. […] Two days after the administration, blood was collected by cardiac puncture, and the casual blood sugar level of each rat was measured with Terumo […] (blood sugar measurement set). […] Breath tests were carried out according to the method as described in (2)-1 or (2)-2 below on diabetic rats prepared in (1) above (8-10-week-old) and normal rats (8-10-week-old). […] A blood sample was collected from the tail vein, and its sugar level was determined using Terumo […] (blood sugar measurement set). […] Fine Science Tools Inc.).

[1] = diabetic rats, 10 mg/kg from the femoral vein, Example 34
[2] = normal rats, 10 mg/kg from the femoral vein, Example 34
[3] = diabetic rats, 20 mg/kg from the femoral vein, Example 12
[4] = normal rats, 20 mg/kg from the femoral vein, Example 12
[5] = diabetic rats, 10 mg/kg from the femoral vein, Example 9
[6] = normal rats, 10 mg/kg from the femoral vein, Example 9
[7] = diabetic rats, 50 mg/kg from the femoral vein, Example 14
[8] = normal rats, 50 mg/kg from the femoral vein, Example 14
[9] = diabetic rats, 10 mg/kg from the femoral vein, Example 25
[10] = normal rats, 10 mg/kg from the femoral vein, Example 25
[11] = diabetic rats, 20 mg/kg from the femoral vein, Example 23
[12] = normal rats, 20 mg/kg from the femoral vein, Example 23
[13] = diabetic rats (n=2), 20 mg/kg from the femoral vein, Example 18
[14] = normal rats, 20 mg/kg from the femoral vein, Example 18
[15] = diabetic rats, 20 mg/kg from the femoral vein, Example 22
[16] = normal rats, 20 mg/kg from the femoral vein, Example 22
[17] = diabetic rats, 20 mg/kg from the femoral vein, Example 8
[18] = normal rats, 20 mg/kg from the femoral vein, Example 8
[19] = diabetic rats, 50 mg/kg, printed as administered orally from the femoral vein, Example 19
[20] = normal rats, 50 mg/kg, printed as administered orally from the femoral vein, Example 19
[21] = diabetic rats, 30 mg/kg from the femoral vein, Example 32
[22] = normal rats, 30 mg/kg from the femoral vein, Example 32
[23] = diabetic rats, 70 mg/kg from the femoral vein, Example 30
[24] = normal rats, 70 mg/kg from the femoral vein, Example 30

C[13C](=O)OCC(CO[13C](C)=O)O[13C](C)=O [1,1,1-^13C-triacetin]
slope from 6 to 10 min after the administration [1]: −6.26±1.50 ‰/4 min
time course of Δ^13C values (‰) [1]: increased sharply up to about 8 min after the administration, but thereafter decreased gradually up to 20 min
Δ^13C value (‰) at 4 min after the administration [1]: 41.97±2.79 ‰
slope from 6 to 10 min after the administration [2]: −0.83±0.90 ‰/4 min
time course of Δ^13C values (‰) [2]: continued increasing up to 20 min
Δ^13C value (‰) at 4 min after the administration [2]: 27.29±2.31 ‰

Cl.NCCC[13C@H](N)[13C](=O)O [1,2-^13C-ornithine hydrochloride]
slope from 2 to 7 min after the administration [3]: 87.79±12.93 ‰/5 min
time course of Δ^13C values (‰) [3]: increased up to about 14 min after the administration, and thereafter remained at an almost constant level up to 20 min
Δ^13C value (‰) at 10 min after the administration [3]: 155.70±17.99 ‰
slope from 2 to 7 min after the administration [4]: 53.56±4.72 ‰/5 min
time course of Δ^13C values (‰) [4]: continued increasing up to 20 min
Δ^13C value (‰) at 10 min after the administration [4]: 100.71±5.97 ‰

O=C(O)CC(O)(C[13C](=O)O)[13C](=O)O (stereo not drawn) [1,6-^13C-citric acid]
slope from 10 to 14 min after the administration (diabetic rats): −10.45±1.30 ‰/4 min
Δ^13C value (‰) at 20 min after the administration (diabetic rats): 54.38±3.34 ‰
slope from 10 to 14 min after the administration (normal rats): −5.81±0.92 ‰/4 min
Δ^13C value (‰) at 20 min after the administration (normal rats): 67.49±1.82 ‰

C[C@H](N)[13C](=O)O [1-^13C-alanine]
slope from 5 to 15 min after the administration [5]: −52.09±19.38 ‰/10 min
time course of Δ^13C values (‰) [5]: sharply increased up to 4 min after the administration of 1-^13C-alanine, but thereafter decreased gradually up to 20 min
Δ^13C value (‰) at 10 min after the administration [5]: 161.35±6.670 ‰
slope from 5 to 15 min after the administration [6]: −18.12±7.28 ‰/10 min
time course of Δ^13C values (‰) [6]: sharply increased up to 4 min after the administration of 1-^13C-alanine, but thereafter decreased gradually up to 20 min
Δ^13C value (‰) at 10 min after the administration [6]: 132.16±3.53 ‰

N=C(N)NCCC[C@H](N)[13C](=O)O [1-^13C-arginine]
slope from 2 to 7 min after the administration [7]: 146.90±18.97 ‰/5 min
time course of Δ^13C values (‰) [7]: increased up to about 12 min after the administration, but thereafter decreased gradually up to 20 min
Δ^13C value (‰) at 10 min after the administration [7]: 192.40±30.23 ‰
slope from 2 to 7 min after the administration [8]: 75.02±10.01 ‰/5 min
time course of Δ^13C values (‰) [8]: continued increasing up to 20 min
Δ^13C value (‰) at 10 min after the administration [8]: 111.68±14.15 ‰

N[C@@H](CC(=O)O)[13C](=O)O [1-^13C-aspartic acid]
slope from 3 to 8 min after the administration [9]: −53.79±11.42 ‰/5 min
time course of Δ^13C values (‰) [9]: increased sharply up to about 2 min after the administration of 1-^13C-aspartic acid, but thereafter decreased gradually up to 20 min
Δ^13C value (‰) at 3 min after the administration [9]: 172.66±8.65 ‰
slope from 3 to 8 min after the administration [10]: −8.13±10.84 ‰/5 min
time course of Δ^13C values (‰) [10]: increased sharply up to about 2 min after the administration of 1-^13C-aspartic acid, but thereafter decreased gradually up to 20 min
Δ^13C value (‰) at 3 min after the administration [10]: 126.56±13.45 ‰

N[C@@H](CS)[13C](=O)O [1-^13C-cysteine]
slope from 1 to 2 min after the administration [11]: 38.50±2.33 ‰/min
Δ^13C value (‰) at 2 min after the administration [11]: 42.87±2.09 ‰
slope from 1 to 2 min after the administration [12]: 65.72±10.66 ‰/min
Δ^13C value (‰) at 2 min after the administration [12]: 78.97±13.98 ‰

O=C([13CH2]O)[C@@H](O)[C@H](O)[C@H](O)CO [1-^13C-fructose]
time course of Δ^13C values (‰) (rat, in vivo, 100 mg/kg): continued increasing up to 20 min

O=[13CH][C@H](O)[C@@H](O)[C@@H](O)[C@H](O)CO [1-^13C-galactose]
time course of Δ^13C values (‰) (rat, in vivo, 100 mg/kg): continued increasing up to 30 min

N[C@@H](CCC(=O)O)[13C](=O)O [1-^13C-glutamic acid]
time course of Δ^13C values (‰) (rat, in vivo, 10 mg/kg): increased sharply up to about 4 min after the administration of 1-^13C-glutamic acid, but thereafter decreased gradually up to 20 min

NC(=O)CC[C@H](N)[13C](=O)O [1-^13C-glutamine]
slope from 1 to 2 min after the administration [13]: 105.59 ‰/min
Δ^13C value (‰) at 5 min after the administration [13]: 168.18 ‰
time course of Δ^13C values (‰) (diabetic rats, 20 mg/kg from the femoral vein, Example 18): increased sharply up to about 3 min after the administration, but thereafter decreased gradually up to 20 min
slope from 1 to 2 min after the administration [14]: 69.88±11.51 ‰/min
time course of Δ^13C values (‰) [14]: increased sharply up to about 3 min after the administration of 1-^13C-glutamine, and thereafter increased gradually up to 20 min
Δ^13C value (‰) at 5 min after the administration [14]: 107.17±15.42 ‰

NC[13C](=O)O [1-^13C-glycine]
time course of Δ^13C values (‰) [15]: increased sharply up to about 5 min after the administration, but thereafter decreased gradually up to 20 min
Δ^13C value (‰) at 7 min after the administration [15]: 156.62±10.83 ‰
time course of Δ^13C values (‰) [16]: increased sharply up to about 5 min after the administration of 1-^13C-glycine, remained at an almost constant level up to about 12 min, but thereafter decreased gradually up to 20 min
Δ^13C value (‰) at 7 min after the administration [16]: 119.06±12.19 ‰

CC[C@H](C)[C@H](N)[13C](=O)O [1-^13C-isoleucine]
slope from 2 to 5 min after the administration [17]: 56.21±2.09 ‰/3 min
time course of Δ^13C values (‰) [17]: increased sharply up to about 9 min after the administration, but thereafter remained at an almost constant level up to 20 min
Δ^13C value (‰) at 5 min after the administration [17]: 83.92±5.53 ‰
slope from 2 to 5 min after the administration [18]: 33.21±2.44 ‰/3 min
time course of Δ^13C values (‰) [18]: continued increasing up to 20 min
Δ^13C value (‰) at 5 min after the administration [18]: 46.98±3.24 ‰

CC(C)C[C@H](N)[13C](=O)O [1-^13C-leucine]
Δ^13C value (‰) at 5 min after the administration (diabetic rats (n=2), 10 mg/kg from the femoral vein, Example 24): 52.89±10.83 ‰
Δ^13C value (‰) at 5 min after the administration (normal rats, 10 mg/kg from the femoral vein, Example 24): 42.56±2.43 ‰

Cl.NCCCC[C@H](N)[13C](=O)O [1-^13C-lysine hydrochloride]
slope from 15 to 20 min after the administration [19]: −26.64±5.36 ‰/5 min
time course of Δ^13C values (‰) [19]: increased up to about 10 min after the administration, but thereafter decreased gradually up to 20 min
Δ^13C value (‰) at 8 min after the administration [19]: 181.53±23.82 ‰
slope from 15 to 20 min after the administration [20]: −4.58±6.91 ‰/5 min
time course of Δ^13C values (‰) [20]: increased up to about 11 min after the administration of 1-^13C-lysine hydrochloride, and thereafter remained at an almost constant level up to 20 min
Δ^13C value (‰) at 8 min after the administration [20]: 96.95±27.48 ‰

CCCCCCC[13C](=O)O [1-^13C-octanoic acid]
slope from 10 to 20 min after the administration [21]: −20.55±7.75 ‰/10 min
time course of Δ^13C values (‰) [21]: increased sharply up to about 5 min after the administration, but thereafter decreased gradually up to 20 min
slope from 10 to 20 min after the administration [22]: −4.76±4.41 ‰/10 min
time course of Δ^13C values (‰) [22]: increased sharply up to about 5 min after the administration of 1-^13C-octanoic acid, and thereafter remained at an almost constant level up to 20 min

CCCCCCCC/C=C\CCCCCCC[13C](=O)O [1-^13C-oleic acid]
slope from 10 to 20 min after the administration [23]: −12.79±3.72 ‰/10 min
time course of Δ^13C values (‰) [23]: increased sharply up to about 8 min after the administration, but thereafter decreased gradually up to 20 min
Δ^13C value (‰) at 8 min after the administration [23]: 132.93±7.09 ‰
slope from 10 to 20 min after the administration [24]: 13.61±4.58 ‰/10 min
time course of Δ^13C values (‰) [24]: continued increasing up to 20 min
Δ^13C value (‰) at 8 min after the administration [24]: 86.51±14.72 ‰
